{"source": "patent US20240277632A1", "about": "“Epinephrine Pharmaceutical Formulations for Intranasal Delivery” (priority 2020, published 2024)", "key": {"[1]": {"details": "aqueous epinephrine by the IN route, no enhancer; cited from earlier work"}, "[2]": {"details": "human; cohort 1 (T2, T4a, Ra)"}, "in vivo": {"experiment": "in vivo", "details": "rat, in vivo", "procedure": "(§1) Each rat was treated with two (2) IN administrations of the respective formulations in Groups A1-A5.\n(§2) The analysis of clinical pathology was conducted by a qualified veterinary laboratory (Quality Veterinary Laboratory (QVL), Davis, California, USA).\n(§3) Histopathological evaluation was conducted by a qualified pathology laboratory (Experimental Pathology Laboratories, Inc. (EPL), Sterling, Virginia, USA). […] EPL's histopathological findings were graded from 1 to 5, with 1 as minimal, and 5 as severe, depending upon severity."}, "rats": {"test_system": "rats", "experiment": "in vivo", "details": "rats", "procedure": "as §1, §2, §3"}, "nasal mucosa of rats": {"test_system": "nasal mucosa of rats", "experiment": "Local toxicity study of STCDC, histopathology of nasal mucosa (Example 5)", "type": "in vivo", "details": "rat; after exposure to STCDC and epinephrine", "procedure": "Example 5 is an animal study designed to investigate the possible histological effects of bile salts (STCDC) on nasal mucosa of rats when the bile salt is used as an absorption enhancer for IN delivery. […] These IN formulations were administered intranasally to the rats. The histopathology of the rat's nasal tissue was examined to evaluate nasal mucosa tolerance to these tested IN formulations.\nIn Table 5.1, Group Nos. 2-6 each had excipients of about 8.5 mg/mL sodium chloride, about 3.84 mg/mL citric acid, about 1.5 mg/mL sodium metabisulfite, about 2.3 mg/mL HCl (10% w/v), and a pH adjustor (NaOH) as needed to adjust the pH to 3.6. […]\nIn total, EPL assessed 48 types of microscopic findings in nasal turbinate cavity level I through IV, as detailed in Table 5.3. […]\nIn order to quantitatively analyze the data for histopathological findings, the three (3) quantities, (i) total observation point (TOP), denoted as TOP, (ii) Average TOP per item per rat, and (iii) average occurrence for Level i (AOL)-i (i=1-5) were analyzed.\nwhere m1, m2, m3, m4, and m5 are number of findings with Level 1, 2, 3, 4, 5, respectively, from the 48 microscopic histopathological items (as detailed in Table 5.3) assessed by EPL, n is the number of rats examined."}}, "data": [{"smiles": "CNCC(O)c1ccc(O)c(O)c1", "note": "(single isomer, unassigned; (-)) [epinephrine, (-)-3,4-Dihy droxy-α-[(methyl-amino)methyl]benzyl alcohol]", "values": [{"measurement": "bioavailability (BA) based on AUC in plasma concentration, IN relative to same dose by IM route", "setting": "[1]", "value": "approximately 5%"}]}, {"smiles": "C[C@H](CCC(=O)NCCS(=O)(=O)[O-])[C@H]1CC[C@H]2[C@@H]3[C@H](O)C[C@@H]4C[C@H](O)CC[C@]4(C)[C@H]3C[C@H](O)[C@]12C.[Na+]", "note": "[STC, sodium taurocholate]", "values": [{"measurement": "baseline level of plasma STC", "setting": "[2]", "value": "approximately 20 pg/mL"}, {"measurement": "NOAEL", "setting": "in vivo", "value": "≥ 2.5", "unit": "mg/kg"}, {"measurement": "NOAEL for bile salt (STC) at an IN delivery, relative dose", "setting": "rats; 15 mg/mL x 0.025 mL x 2, body weight 0.298 kg", "value": 2.5, "unit": "mg/kg"}, {"measurement": "NOAEL for the bile salt (STC), concentration", "setting": "rats; IN administration, highest studied concentration", "value": "exceeding 15 mg/mL"}]}, {"smiles": "C[C@H](CCC(=O)NCCS(=O)(=O)[O-])[C@H]1CC[C@H]2C3[C@H](O)C[C@@H]4C[C@H](O)CC[C@]4(C)[C@H]3CC[C@]12C.[Na+]", "note": "(stereo partly drawn) [STCDC, sodium taurochenodeoxycholate]", "values": [{"measurement": "course of observed nasal toxicity items over time (average TOP, FIG. 6D)", "setting": "nasal mucosa of rats", "value": "nearly normal at two weeks post-dose"}]}]}
